The NIST ThermoML archive (doi:10.1016/j.jct.2014.07.023)
Several values for one entry are separate records, joined by “and”; a condition that tells them apart may be missing. Equal values may be shown once. Numbers after ± are expanded uncertainties.

Key:
[1] = molar heat capacity at constant pressure; settings: 101.33 kPa, Liquid, Small sample (50 mg) DSC
[2] = molar heat capacity at constant pressure; xn = mol fraction of the nth substance listed; settings: 100 kPa, Liquid, Small sample (50 mg) DSC, x2 = 0

SMILES	molar heat capacity at constant pressure ([1]; 293.15 K)	molar heat capacity at constant pressure ([1]; 298.15 K)	molar heat capacity at constant pressure ([1]; 303.15 K)	molar heat capacity at constant pressure ([1]; 308.15 K)	molar heat capacity at constant pressure ([1]; 313.15 K)	molar heat capacity at constant pressure ([1]; 318.15 K)	molar heat capacity at constant pressure ([1]; 323.15 K)	molar heat capacity at constant pressure ([2]; 293.15 K)	molar heat capacity at constant pressure ([2]; 298.15 K)	molar heat capacity at constant pressure ([2]; 303.15 K)	molar heat capacity at constant pressure ([2]; 308.15 K)	molar heat capacity at constant pressure ([2]; 313.15 K)	molar heat capacity at constant pressure ([2]; 318.15 K)	molar heat capacity at constant pressure ([2]; 323.15 K)
CC(O)CCO (stereo not drawn) [1,3-butanediol]	215.84 ± 9.2 J/K/mol	218.89 ± 9.3 J/K/mol and 218.9 ± 9.3 J/K/mol	222.06 ± 9.5 J/K/mol	225.21 ± 9.6 J/K/mol	228.37 ± 9.7 J/K/mol	231.61 ± 9.8 J/K/mol	234.86 ± 10 J/K/mol	–	–	–	–	–	–	–
CO [methanol] + CC(O)C(C)O	–	–	–	–	–	–	–	80.46 ± 3.4 J/K/mol	81.39 ± 3.5 J/K/mol	82.38 ± 3.5 J/K/mol	83.44 ± 3.5 J/K/mol	84.56 ± 3.6 J/K/mol	85.78 ± 3.7 J/K/mol	87.03 ± 3.7 J/K/mol
CCC(O)CO (stereo not drawn) [1,2-butanediol]	228.1 ± 9.6 J/K/mol	230.82 ± 9.8 J/K/mol and 230.8 ± 9.8 J/K/mol	233.5 ± 9.9 J/K/mol	236.21 ± 10 J/K/mol	238.91 ± 10 J/K/mol	241.52 ± 10 J/K/mol	244.23 ± 10 J/K/mol	–	–	–	–	–	–	–
CO [methanol] + CC(O)CCO	–	–	–	–	–	–	–	80.46 ± 3.4 J/K/mol	81.39 ± 3.5 J/K/mol	82.38 ± 3.5 J/K/mol	83.44 ± 3.5 J/K/mol	84.56 ± 3.6 J/K/mol	85.78 ± 3.7 J/K/mol	87.03 ± 3.7 J/K/mol
CO [methanol] + CCC(O)CO	–	–	–	–	–	–	–	80.46 ± 3.4 J/K/mol	81.39 ± 3.5 J/K/mol	82.38 ± 3.5 J/K/mol	83.44 ± 3.5 J/K/mol	84.56 ± 3.6 J/K/mol	85.78 ± 3.7 J/K/mol	87.03 ± 3.7 J/K/mol
CC(O)C(C)O (stereo not drawn) [2,3-butanediol]	233.95 ± 9.9 J/K/mol	236.66 ± 10 J/K/mol and 236.63 ± 10 J/K/mol	239.36 ± 10 J/K/mol	242.07 ± 10 J/K/mol	244.77 ± 10 J/K/mol	247.47 ± 11 J/K/mol	250.18 ± 11 J/K/mol	–	–	–	–	–	–	–
OCCCCO [1,4-butanediol]	201.15 ± 8.6 J/K/mol	203.79 ± 8.7 J/K/mol and 203.76 ± 8.7 J/K/mol	206.56 ± 8.7 J/K/mol	209.44 ± 8.9 J/K/mol	212.33 ± 9 J/K/mol	215.39 ± 9.1 J/K/mol	218.54 ± 9.3 J/K/mol	–	–	–	–	–	–	–
CO [methanol]	80.46 ± 3.4 J/K/mol	81.38 ± 3.5 J/K/mol and 81.39 ± 3.5 J/K/mol	82.38 ± 3.5 J/K/mol	83.44 ± 3.5 J/K/mol	84.56 ± 3.6 J/K/mol	85.78 ± 3.7 J/K/mol	87.03 ± 3.7 J/K/mol	–	–	–	–	–	–	–
CO [methanol] + OCCCCO	–	–	–	–	–	–	–	80.46 ± 3.4 J/K/mol	81.39 ± 3.5 J/K/mol	82.38 ± 3.5 J/K/mol	83.44 ± 3.5 J/K/mol	84.56 ± 3.6 J/K/mol	85.78 ± 3.7 J/K/mol	87.03 ± 3.7 J/K/mol
